Series [1] in a line: In vitro dissolution-permeation of aripiprazole forms on μFLUX. The format is in vitro ADME. On the procedure:
In the case of buccal drug delivery, the donor chamber represented the oral cavity, the artificial membrane the oral mucosa, while the acceptor chamber represented the blood circulation. At first […] of n-dodecane was dribbled on the membrane surface, then 20 mL of pH 6.8 phosphate buffer was added into the donor chamber, and 20 mL of sink buffer was added into the acceptor chamber. […] Samples equivalent to 20 mg of ARP were placed in the donor chamber. Both chambers were stirred at 200 rpm at room temperature, using stirring devices 87 and 89. The temperature was controlled via elements 91. In both chambers the API concentration was followed by UV-spectrophotometry at 252 nm. Suitable probes for the spectroscopic measurements (not shown in FIG. 12) were introduced through openings 93 and 95.
The flux across the membrane was calculated using the following equation:
[formula] where the flux (J) of a drug through the membrane is defined as the amount (n) of drug crossing a unit area (A) perpendicular to its flow per unit time (t).
The API concentration profiles in the donor and acceptor vessels (1000 mg/L max concentration, 0.025 mol/dm^3 KH2PO4 buffer in the donor compartment, n-dodecane membrane, sink buffer as acceptor, 150 rpm, 25° C.) are presented, respectively, in FIGS. 13A and 13B.

The nature of a further series: physchem. To be noted: aqueous buffer.
A short description of series [2]: Permeability in concentric nested donor/receiver arrangement with PAMPA membrane. It is filed as in vitro ADME. To be noted: in situ UV fiber optic, read-out: Peff (effective permeability coefficient). A general note: PAMPA measures passive passage across an artificial lipid membrane.
Method: A concentric nested arrangement was used to study permeability of several compounds. The membrane was a PAMPA membrane and experiments were performed with and without Acceptor Sink Buffer™ on the acceptor sink side. Concentrations measurements were taken using in situ UV fiber optic system Pion Spectra™.

Each structure is given as a SMILES string. ≈ marks a conversion by molar mass, not a printed value.

We go through 3 compounds from US10228358B2, “Apparatus and method for the assessment of concentration profiling and permeability rates” (Pion Inc., priority 2015, dated 2019).

As usually defined, the solubility is the concentration that dissolves in the medium under given conditions.

Method for physchem: In the case of buccal drug delivery, the donor chamber represented the oral cavity, the artificial membrane the oral mucosa, while the acceptor chamber represented the blood circulation. At first 75 mL of n-dodecane was dribbled on the membrane surface, then 20 mL of pH 6.8 phosphate buffer was added into the donor chamber, and 20 mL of sink buffer was added into the acceptor chamber. […] Both chambers were stirred at 200 rpm at room temperature, using stirring devices 87 and 89. The temperature was controlled via elements 91. In both chambers the API concentration was followed by UV-spectrophotometry at 252 nm. Suitable probes for the spectroscopic measurements (not shown in FIG. 12) were introduced through openings 93 and 95.
The in vitro dissolution-absorption studies were carried out using a μFLUX™ (Pion Inc., Billerica Mass., U.S.A.), a schematic diagram of which is shown in FIG. 12. The apparatus included a donor and an acceptor chamber (20 mL volume) separated by an artificial membrane (PVDF, polyvinylidenefluoride, 0.45 μm, 1.54 cm^2). In the case of oral drug delivery, the donor chamber represents the gastrointestinal tract, while the acceptor chamber represents the blood circulation. […]

Turning to `O=C1CCc2ccc(OCCCCN3CCN(c4cccc(Cl)c4Cl)CC3)cc2N1` [ARP, aripiprazole], in series [1] (30-60 min, donor chamber), the “API dissolved during the biorelevant time” value came to 1.5%. In addition, the “flux during the first 25 min” value in series [1] (n-dodecane membrane, sink buffer acceptor) was 16 μg/h×cm^2. Also, the solubility in the series “physchem” stood at 30 µg/mL (≈ 66.9 µM). As to `CC(=O)Oc1ccccc1C(=O)O` [Aspirin], in series [2], the Papp turned out to be 331 ×10⁻⁶ cm/s. `Cn1c(=O)c2c(ncn2C)n(C)c1=O` [Caffeine]: the Papp in series [2] amounted to 257 ×10⁻⁶ cm/s.
